From patent US20040087623A1, “Pyrazole derivatives against tgf overexpression” (priority 2001, published 2004)
Structures can show the parent of a compound that is named as a salt.

The molecules below were run on TGF-β signaling (PAI-1 promoter-luciferase in HepG2 cells) (assay: Assay 1: inhibition of TGF-β induced PAI-1 promoter luciferase reporter in HepG2 cells). Conditions: 500 μM CPO with TGF-β; % of those obtained in column 11 (TGF-β only).
Protocol: The assay was performed in HepG2 cells stably transfected with the PAI-1 promoter (known to be a strong TGF-β responsive promoter) linked to a luciferase (firefly) reporter gene. The compounds were selected on their ability to inhibit luciferase activity in cells exposed to TGF-β. In addition cells were transfected with a second luciferase (Renilla) gene which was not driven by a TGF-β responsive promoter and was used as a toxicity control.
(96 well-)microplates are seeded, using a multidrop apparatus, with the stably transfected cell line at a concentration of 35000 cells per well in 200 μl of serum-containing medium. These plates are placed in a cell incubator.
18 to 24 hours later (Day 2), cell-incubation procedure is launched. Cells are incubated with TGF-β and a candidate compound at concentrations in the range 50 nM to 10 μM (final concentration of DMSO 1%). The final concentration of TGF-β (rhTGFβ-1) used in the test is 1 ng/mL. […] The final volume of the test reaction is 150 μl. Each well contains only one candidate compound and its effect on the PAI-1 promoter is monitored.
Columns 11 and 12 are employed as controls. Column 11 contains 8 wells in which the cells are incubated in the presence of TGF-β, without a candidate compound. Column 11 is used to determine the ‘reference TGF-β induced firefly luciferase value’ against which values measured in the test wells (to quantify inhibitory activity) may be compared. In wells A12 to D12, cells are grown in medium without TGF-β. The firefly luciferase values obtained from these positions are representative of the ‘basal firefly luciferase activity’. In wells E12 to H12, cells are incubated in the presence of TGF-β and 500 μM CPO (Cyclopentenone, Sigma), a cell toxic compound.
12 to 18 hours later (day 3), the luciferase quantification procedure is launched. The following reactions are performed using reagents obtained from a Dual Luciferase Assay Kit (Promega). Cells are washed and lysed with the addition of 10 μl of passive lysis buffer (Promega). Following agitation (15 to 30 mins), luciferase activities of the plates are read in a dual-injector luminometer (BMG lumistar). For this purpose, 50 μl of luciferase assay reagent and 50 μl of ‘Stop & Glo’ buffer are injected sequentially to quantify the activities of both luciferases. The mean Luciferase activity value obtained in wells A11 to H11 (Column 11, TGF-β only) is considered to represent 100% and values obtained in wells A12 to D12 (cells in medium alone) give a basal level (0%). For each of the compounds tested, a concentration response curve is constructed from which an IC50 value can be determined graphically.

SMILES	firefly and renilla luciferase activities (toxicity control)
O=C1C=CCC1 [CPO, Cyclopentenone, reference compound]	around 50%

Same assay, conditions: Homo sapiens, HepG2, read-out: IC50 value in Assay 1

SMILES	IC50 [µM]
Clc1ccc(-c2cc(-c3c[nH]nc3-c3ccccn3)ccn2)cc1 [Example 5, 2-(4-Chlorophenyl)-4-(3-pyridin-2-yl-1H-pyrazol4-yl)pyridine]	≤ 5
CN(C)Cc1ccc(-c2cc(-c3c[nH]nc3-c3ccccn3)ccn2)cc1 [Example 43, Dimethyl-{4-[4-(3-pyridin-2-yl-1H-pyrazol-4-yl)pyridin-2-yl]-benzyl}-amine]	≤ 5
c1ccc(-c2cc(-c3c[nH]nc3-c3ccccn3)ccn2)cc1 [Example 1, 2-Phenyl-4-(3-pyridin-2-yl-1H-pyrazol-4-yl)pyridine]	≤ 5
c1ccc(-c2n[nH]cc2-c2ccnc(-c3ccc(CNC4CCOCC4)cc3)c2)nc1 [Example 18]	≤ 5
CCc1ccc(-c2cc(-c3c[nH]nc3-c3ccccn3)ccn2)cc1 [Example 9, 2-(4-Ethylphenyl)-4-(3-pyridin-2-yl-1H-pyrazol-4-yl)pyridine]	≤ 5
Cc1ccc(-c2cc(-c3c[nH]nc3-c3ccccn3)ccn2)cc1 [Example 8, 2-(4-Methylphenyl)-4-(3-pyridin-2-yl-1H-pyrazol-4-yl)pyridine]	≤ 5
O=C(CCN1CCCCC1)Nc1ccc(-c2cc(-c3c[nH]nc3-c3ccccn3)ccn2)cc1 [Example 25, 3-Piperidin-1-yl-N{4-[4-(3-pyridin-2-yl-1H-pyrazol-4-yl)-pyridin-2-yl]-phenyl}-propionamide hydrochloride]	≤ 5
O=C(CN1CCCC1)Nc1ccc(-c2cc(-c3c[nH]nc3-c3ccccn3)ccn2)cc1 [Example 22, 2-Pyrrolidin-1-yl-N-{4-[4-(3-pyridin-2-yl-1H-pyrazol-4-yl)-pyridin-2-yl]-phenyl}-acetamide]	≤ 5
COCCNC(=O)c1ccc(-c2cc(-c3c[nH]nc3-c3ccccn3)ccn2)cc1 [Example 46, N-(2-Methoxy-ethyl)-4-[4-(3-pyridin-2-yl-1H-pyrazol-4-yl)-pyridin-2-yl]-benzamide]	≤ 5
c1ccc(-c2n[nH]cc2-c2ccnc(-c3ccco3)c2)nc1 [Example 6, 2-(Furan-2-yl)-4-(3-pyridin-2-yl-1H-pyrazol-4-yl)pyridine]	≤ 5
CN1CCN(C(=O)c2ccc(-c3cc(-c4c[nH]nc4-c4ccccn4)ccn3)cc2)CC1 [Example 38, 1-Methyl-4-{4-[4-(3-pyridin-2-yl-1H-pyrazol-4-yl)-pyridin-2-yl]-benzoyl}-piperazine]	≤ 5
c1ccc(-c2n[nH]cc2-c2ccnc(-c3ccc(OCCN4CCCC4)cc3)c2)nc1 [Example 11, 2-[4-(2-Pyrrolidin-1-ylethoxy)-phenyl]-4-(3-pyridin-2-yl-1H-pyrazol-4-yl)pyridine]	≤ 5
c1ccc(-c2n[nH]cc2-c2ccnc(-c3ccc(CN4CCOCC4)cc3)c2)nc1 [Example 19, {4-[4-(3-Pyridin-2-yl-1H-pyrazol-4-yl)pyridin-2-yl]benzyl}-morpholine hydrochloride]	≤ 5
c1ccc(-c2n[nH]cc2-c2ccnc(-c3ccc(N4CCOCC4)cc3)c2)nc1 [Example 13, 4-{4-[4-(3-Pyridin-2-yl-1H-pyrazol-4-yl)-pyridin-2-yl]-phenyl}-morpholine]	≤ 5
O=C(NCC1CCOCC1)c1ccc(-c2cc(-c3c[nH]nc3-c3ccccn3)ccn2)cc1 [Example 44, 4-[4-(3-Pyridin-2-yl-1H-pyrazol-4-yl)-pyridin-2-yl]-N-(tetrahydropyran-4-yl-methyl)-benzamide]	≤ 5
CN(Cc1ccc(-c2cc(-c3c[nH]nc3-c3ccccn3)ccn2)cc1)c1cccnc1 [Example 20, Pyridin-3-yl-methyl-{4-[4-(3-pyridin-2-yl-1H-pyrazol-4-yl)pyridin-2-yl]benzyl}-amine]	≤ 5
Fc1ccc(-c2cc(-c3c[nH]nc3-c3ccccn3)ccn2)cc1 [Example 4, 2-(4-Fluorophenyl)-4-(3-pyridin-2-yl-1H-pyrazol-4-yl)pyridine]	≤ 5
O=C(c1ccc(-c2cc(-c3c[nH]nc3-c3ccccn3)ccn2)cc1)N1CCOCC1 [Example 39, 4-{4-[4-(3-Pyridin-2-yl-1H-pyrazol-4-yl)-pyridin-2-yl]-benzoyl}-morpholine]	≤ 5
Cn1cncc1COc1ccc(-c2cc(-c3c[nH]nc3-c3ccccn3)ccn2)cc1 [Example 16, 2-[4-(3-Methyl-3H-imidazol-4-ylmethoxy)-phenyl]-4-(3-pyridin-2-yl-1-H-pyrazol-4)-pyridine]	≤ 5
Cn1ccnc1COc1ccc(-c2cc(-c3c[nH]nc3-c3ccccn3)ccn2)cc1 [Example 15, 2-[4-(1-Methyl-1H-imidazol-2-ylmethoxy)-phenyl]-4-(3-pyridin-2-yl-1H-pyrazol-4-yl)pyridine]	≤ 5

SMILES	IC50 [µM]
O=C(NCC1CCCCC1)c1ccc(-c2cc(-c3c[nH]nc3-c3ccccn3)ccn2)cc1 [Example 47, N-Cyclohexylmethyl-4-[4-(3-pyridin-2-yl-1H-pyrazol-4-yl)-pyridin-2-yl]-benzamide]	≤ 5
O=C(NC1CCOCC1)c1ccc(-c2cc(-c3c[nH]nc3-c3ccccn3)ccn2)cc1 [Example 28, 4-[4-(3-Pyridin-2-yl-1H-pyrazol-4-yl)-pyridin-2-yl]-N-(tetrahydro-pyran-4-yl)-benzamide]	≤ 5
N#CCCNCc1ccc(-c2cc(-c3c[nH]nc3-c3ccccn3)ccn2)cc1 [Example 12, 3-({4-[4-(3-Pyridin-2-yl-1H-pyrazol-4-yl)pyridin-2-yl]benzyl}amino)propanenitrile]	≤ 5
c1ccc(-c2n[nH]cc2-c2ccnc(-c3ccc(OCCn4ccnc4)cc3)c2)nc1 [Example 17, 2-[4-(2-{1H-Imidazol-1-yl}-ethoxy)-phenyl]-4-(3-pyridin-2-yl-1H-pyrazol-4-yl)-pyridine]	≤ 5
FC(F)(F)Oc1ccc(-c2cc(-c3c[nH]nc3-c3ccccn3)ccn2)cc1 [Example 7, 2-(4-Trifluoromethoxyphenyl)-4-(3-pyridin-2-yl-1H-pyrazol-4-yl)pyridine]	≤ 5
CN1CCN(CCC(=O)Nc2ccc(-c3cc(-c4c[nH]nc4-c4ccccn4)ccn3)cc2)CC1 [Example 27, 3-(4-Methyl-piperazin-1-yl)-N{4-[4-(3-pyridin-2-yl-1H-pyrazol-4-yl)-pyridin-2yl]-phenyl}-propionamide]	≤ 5
O=C(CN1CCCCC1)Nc1ccc(-c2cc(-c3c[nH]nc3-c3ccccn3)ccn2)cc1 [Example 21, 2-Piperidin-1-yl-N-{4-[4-(3-pyridin-2-yl-1H-pyrazol-4-yl)-pyridin-2-yl]-phenyl}-acetamide]	≤ 5
CN1CCN(CC(=O)Nc2ccc(-c3cc(-c4c[nH]nc4-c4ccccn4)ccn3)cc2)CC1 [Example 24, 2-(4-Methyl-piperazin-1-yl)-N-{4-[4-(3-pyridin-2-yl-1H-pyrazol-4-yl)-pyridin-2-yl]-phenyl}-acetamide]	≤ 5
O=C(CN1CCOCC1)Nc1ccc(-c2cc(-c3c[nH]nc3-c3ccccn3)ccn2)cc1 [Example 23, 2-Morpholin-1-yl-N-{4-[4-(3-pyridin-2-yl-1H-pyrazol-4-yl)-pyridin-2-yl]phenyl}-acetamide]	≤ 5
O=C(CCN1CCOCC1)Nc1ccc(-c2cc(-c3c[nH]nc3-c3ccccn3)ccn2)cc1 [Example 26]	≤ 5
c1ccc(-c2n[nH]cc2-c2ccnc(-c3ccsc3)c2)nc1 [Example 10, 2-(Thiophen-3-yl)-4-(3-pyridin-2-yl-1H-pyrazol-4-yl)pyridine]	≤ 5
CN1CCC(NCc2ccc(-c3cc(-c4c[nH]nc4-c4ccccn4)ccn3)cc2)CC1 [Example 37, (1-Methyl-piperidin-4-yl)-{4-[4-(3-pyridin-2-yl-1H-pyrazol-4-yl)pyridin-2-yl]benzyl}-amine]	≤ 5
FC(F)(F)c1ccc(-c2cc(-c3c[nH]nc3-c3ccccn3)ccn2)cc1 [Example 2, 2-[4(Trifluoromethyl)Phenyl]-4-(3-pyridin-2-yl-1H-pyrazol-4-yl) Pyridine]	≤ 5
CN(C)C1CCN(C(=O)c2ccc(-c3cc(-c4c[nH]nc4-c4ccccn4)ccn3)cc2)CC1 [Example 40, (4-Dimethylamino)-1-{4-[4-(3-pyridin-2-yl-1H-pyrazol-4-yl)-pyridin-2-yl]-benzoyl}-piperidine]	≤ 5
CCN1CCCC1CNC(=O)c1ccc(-c2cc(-c3c[nH]nc3-c3ccccn3)ccn2)cc1 (stereo not shown) [Example 29, N-(1-Ethyl-pyrolidin-2-ylmethyl)-4-[4-(3-pyridin-2-yl-1H-pyrazol-4-yl)-pyridin-2-yl]-benzamide]	≤ 5
COCCN(C)C(=O)c1ccc(-c2cc(-c3c[nH]nc3-c3ccccn3)ccn2)cc1 [Example 45, N-(2-Methoxy-ethyl)-N-methyl-4-[4-(3-pyridin-2-yl-1H-pyrazol-4-yl)-pyridin-2-yl]-benzamide]	≤ 5
Cn1cnc(COc2ccc(-c3cc(-c4c[nH]nc4-c4ccccn4)ccn3)cc2)c1 [Example 14, 2-[4-(1-Methyl-1-H-imidazol-4-ylmethoxy)-phenyl]-4-(3-pyridin-2-yl-1H-pyrazol-4-yl)-pyridine]	≤ 5
COC1CCN(Cc2ccc(-c3cc(-c4c[nH]nc4-c4ccccn4)ccn3)cc2)CC1 [Example 34, 4-Methoxy-1-{4-[4-(3-pyridin-2-yl-1H-pyrazol-4-yl)pyridin-2-yl]benzyl}-piperidine]	≤ 5
COc1ccc(-c2cc(-c3c[nH]nc3-c3ccccn3)ccn2)cc1 [Example 3, 2-(4-Methoxyphenyl)-4-(3-pyridin-2-yl-1H-pyrazol-4-yl)pyridine]	≤ 5
